In general, IC50 refers to the concentration that inhibits the measured activity by half.

One assay deals with 6×HIS-tankyrase 1 (1091-1325) (Homo sapiens (Human), UniProt O95271). As to the kind of experiment: biochemical. Type of assay: biochemical. As to conditions: 0.25 nM enzyme, 400 nM NAD, 60 minutes at room temperature; read-out: TNKS1 IP IC50.
Sequence of 6×HIS-tankyrase 1 (1091-1325) (O95271 1091-1325): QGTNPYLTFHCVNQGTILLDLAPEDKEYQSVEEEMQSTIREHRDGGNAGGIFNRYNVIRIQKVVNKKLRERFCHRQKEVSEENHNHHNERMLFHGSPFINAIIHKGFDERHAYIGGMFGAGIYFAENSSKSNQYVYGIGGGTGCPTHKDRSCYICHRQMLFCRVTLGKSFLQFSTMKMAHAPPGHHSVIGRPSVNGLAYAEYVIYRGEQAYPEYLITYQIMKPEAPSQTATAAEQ
On to `Cc1ccc([C@H]2CC[C@@H](N3C(=O)OC(C)(C)[C@@H]3c3ccccc3)CC2)cn1` [Example 134, (S)-5,5-dimethyl-3-((1 s,4r)-4-(6-methylpyridin-3-yl)cyclohexyl)-4-phenyloxazolidin-2-one], for which the IC50 was > 46.3 µM.
Still for that read-out and setting: the result for `CC1(C)OC(=O)N([C@H]2CC[C@H](c3cc4ccncc4[nH]c3=O)CC2)[C@H]1c1ccccc1` [Example 139, (S)-5,5-dimethyl-3-((1r,4s)-4-(2-oxo-1,2-dihydro-1,7-naphthyridin-3-yl)cyclohexyl)-4-phenyloxazolidin-2-one] reads 0.0115 µM; that for `CC1(C)OC(=O)N([C@H]2CC[C@H](c3cnc4[nH]ccc4c3)CC2)[C@H]1c1ccccc1` [Example 137, (S)-3-((1r,4s)-4-(1H-pyrrolo[2,3-b]pyridin-5-yl)cyclohexyl)-5,5-dimethyl-4-phenyloxazolidin-2-one], 0.218 µM.
Still for that read-out and setting: the result for `CC1(C)OC(=O)N([C@H]2CC[C@@H](c3cnc4[nH]ccc4c3)CC2)[C@H]1c1ccccc1` [Example 136, (S)-3-((1s,4r)-4-(1H-pyrrolo[2,3-b]pyridin-5-yl)cyclohexyl)-5,5-dimethyl-4-phenyloxazolidin-2-one] reads 0.00517 µM.
On the same count and under the same terms, the result for `CC1(C)OC(=O)N([C@H]2C[C@H](c3nnc(-c4ccccc4)o3)C2)[C@H]1c1ccccc1` (single isomer, unassigned) [Example 177] reads 1.02 µM; that for `CC1(C)OC(=O)N([C@H]2CC[C@H](c3cccnc3)CC2)[C@H]1c1ccccc1` [Example 133, (S)-5,5-dimethyl-4-phenyl-3-((1r,4s)-4-(pyridin-3-yl)cyclohexyl)oxazolidin-2-one], 1.38 µM.

Staying with this assay, now noted: […] enzyme, 400 nM NAD, 60 minutes at room temperature; read-out: TNKS1 IP IC50.
For `CC1(C)OC(=O)N([C@H]2CC[C@H](NC(=O)c3ccncc3)CC2)[C@H]1c1ccccc1` [Example 142, N-((1S,4r)-4-((S)-5,5-dimethyl-2-oxo-4-phenyloxazolidin-3-yl)cyclohexyl)isonicotinamide], the 50% inhibitory concentration (IC50) is 0.205 µM.
Same read-out and setting: the result for `CC1(C)OC(=O)N([C@H]2CC[C@H](NC(=O)c3csc(Br)n3)CC2)[C@H]1c1ccccc1` [Example 182, 2-bromo-N-((1S,4r)-4-((S)-5,5-dimethyl-2-oxo-4-phenyloxazolidin-3-yl)cyclohexyl)thiazole-4-carboxamide] reads 0.0321 µM; that for `Cn1cc(C(=O)N[C@H]2CC[C@H](N3C(=O)OC(C)(C)[C@@H]3c3ccccc3)CC2)c2ccccc21` [Example 143, N-((1R,4r)-4-((R)-5,5-dimethyl-2-oxo-4-phenyloxazolidin-3-yl)cyclohexyl)-1-methyl-1H-indole-3-carboxamide], 0.225 µM.
The same measure, in the same setting: the result for `Cn1cc2cccc(C(=O)N[C@H]3CC[C@H](N4C(=O)OC(C)(C)[C@@H]4c4ccccc4)CC3)c2n1` [Example 145, N-((1S,4r)-4-((S)-5,5-dimethyl-2-oxo-4-phenyloxazolidin-3-yl)cyclohexyl)-2-methyl-2H-indazole-7-carboxamide] reads 0.0137 µM; that for `CC1(C)OC(=O)N([C@H]2CC[C@H](NC(=O)c3ccnc4[nH]ccc34)CC2)[C@H]1c1ccccc1` [Example 152, N-((1S,4r)-4-((S)-5,5-dimethyl-2-oxo-4-phenyloxazolidin-3-yl)cyclohexyl)-1H-pyrrolo[2,3-b]pyridine-4-carboxamide], 0.228 µM; that for `CC1(C)OC(=O)N([C@H]2CC[C@H](NC(=O)c3cscn3)CC2)[C@H]1c1ccccc1` [Example 168, N-((1S,4r)-4-((S)-5,5-dimethyl-2-oxo-4-phenyloxazolidin-3-yl)cyclohexyl)thiazole-4-carboxamide], > 46.3 µM.
The same measure, in the same setting: the result for `CC1(C)OC(=O)N([C@H]2CC[C@H](n3ncc4cc(C#N)ccc43)CC2)[C@H]1c1ccccc1` [Example 181, 1-((1S,4r)-4-((S)-5,5-dimethyl-2-oxo-4-phenyloxazolidin-3-yl)cyclohexyl)-1H-indazole-5-carbonitrile] reads 0.714 µM.
Consider `CC1(C)OC(=O)N([C@H]2CC[C@H](NC(=O)c3ccc4cc[nH]c4n3)CC2)[C@H]1c1ccccc1` [Example 147, N-((1S,4r)-4-((S)-5,5-dimethyl-2-oxo-4-phenyloxazolidin-3-yl)cyclohexyl)-1H-pyrrolo[2,3-b]pyridine-6-carboxamide], for which the IC50 amounted to 0.0264 µM.
Same read-out and setting: the result for `Cc1nc(C(=O)N[C@H]2CC[C@H](N3C(=O)OC(C)(C)[C@@H]3c3ccccc3)CC2)cs1` [Example 166, N-((1S,4r)-4-((S)-5,5-dimethyl-2-oxo-4-phenyloxazolidin-3-yl)cyclohexyl)-2-methylthiazole-4-carboxamide] reads > 46.3 µM; that for `CC1(C)OC(=O)N([C@H]2CC[C@@H](c3cnc4cc[nH]c4c3)CC2)[C@H]1c1ccccc1` [Example 172, (S)-3-((1s,4R)-4-(1H-pyrrolo[3,2-b]pyridin-6-yl)cyclohexyl)-5,5-dimethyl-4-phenyloxazolidin-2-one], 1.25 µM.
Same read-out and setting: the result for `CC1(C)OC(=O)N([C@H]2CC[C@H](NC(=O)c3ccc4scnc4c3)CC2)[C@H]1c1ccccc1` [Example 150, N-((1S,4r)-4-((S)-5,5-dimethyl-2-oxo-4-phenyloxazolidin-3-yl)cyclohexyl)benzo[d]thiazole-5-carboxamide] reads 1.54 µM; that for `Cn1cncc1C(=O)N[C@H]1CC[C@H](N2C(=O)OC(C)(C)[C@@H]2c2ccccc2)CC1` [Example 151, N-((1S,4r)-4-((S)-5,5-dimethyl-2-oxo-4-phenyloxazolidin-3-yl)cyclohexyl)-1-methyl-1H-imidazole-5-carboxamide], 16.6 µM.
The same measure, in the same setting: the result for `C[C@@H]1OC(=O)N([C@H]2CC[C@H](n3c(=O)[nH]c4cc(C#N)ccc43)CC2)C1c1ccccc1` (stereo partly drawn) [Example 179, 1-((1R,4r)-4-((4R,5S)-5-methyl-2-oxo-4-phenyloxazolidin-3-yl)cyclohexyl)-2-oxo-2,3-dihydro-1H-benzo[d]imidazole-5-carbonitrile] reads 0.129 µM; that for `CC1(C)OC(=O)N([C@H]2CC[C@H](NC(=O)c3csc(-c4ncccn4)n3)CC2)[C@H]1c1ccccc1` [Example 183, N-((1S,4r)-4-((S)-5,5-dimethyl-2-oxo-4-phenyloxazolidin-3-yl)cyclohexyl)-2-(pyrimidin-2-yl)thiazole-4-carboxamide], 0.00394 µM.
As for `CC1(C)OC(=O)N(C2CC=C(c3cc4ccncc4[nH]c3=O)CC2)[C@H]1c1ccccc1` (stereo partly drawn) [Example 87, (4S)-5,5-dimethyl-3-(4-(2-oxo-1,2-dihydro-1,7-naphthyridin-3-yl)cyclohex-3-en-1-yl)-4-phenyloxazolidin-2-one], the half-maximal inhibitory concentration (IC50) turned out to be 0.00691 µM.
On the same count and under the same terms, the result for `CC1(C)OC(=O)N([C@H]2CC[C@H](NC(=O)c3cccc4[nH]ncc34)CC2)[C@H]1c1ccccc1` [Example 153, N-((1S,4r)-4-((S)-5,5-dimethyl-2-oxo-4-phenyloxazolidin-3-yl)cyclohexyl)-1H-indazole-4-carboxamide] reads 0.848 µM; that for `CC(C)c1cc(C(=O)N[C@H]2CC[C@H](N3C(=O)OC(C)(C)[C@@H]3c3ccccc3)CC2)[nH]n1` [Example 154, N-((1S,4r)-4-((S)-5,5-dimethyl-2-oxo-4-phenyloxazolidin-3-yl)cyclohexyl)-3-isopropyl-1H-pyrazole-5-carboxamide], 2.32 µM.
Same read-out and setting: the result for `COc1ccccc1C(=O)N[C@H]1CC[C@H](N2C(=O)OC(C)(C)[C@@H]2c2ccccc2)CC1` [Example 163, N-((1S,4r)-4-((S)-5,5-dimethyl-2-oxo-4-phenyloxazolidin-3-yl)cyclohexyl)-2-methoxybenzamide] reads 0.22 µM.

Values taken from US9340549B2, “Oxazolidinone compounds and derivatives thereof” (priority 2012, dated 2016).
